Experimental findings from ChEMBL document CHEMBL1212740, “Long-lasting enfuvirtide carrier pentasaccharide conjugates with potent anti-human immunodeficiency virus type 1 activity” (Antimicrob Agents Chemother, 2010) are described below.

The EC50 is the concentration giving half of the maximal effect. The half-life is the time in which the quantity being followed falls by half. A lower half-life goes with fast loss.

Data set [1] has as its system Human immunodeficiency virus 1. In words: Antiviral activity against HIV1 NL4.3 in human PBMC assessed as p24 antigen level by ELISA. It counts as functional, organism-based. The conditions noted are these: Human immunodeficiency virus 1, NL4.3. On the technique in general: In an ELISA, binding on a coated surface is turned into a signal by an enzyme label.
The test system of data set [2] is Human immunodeficiency virus 1. In words: Antiviral activity against HIV1 Ba-L in human PBMC assessed as p24 antigen level by ELISA. It is filed as functional, organism-based. Particulars: Human immunodeficiency virus 1, Ba-L.
The subject of data set [3] is Human immunodeficiency virus 1. The data set is described as follows: Antiviral activity against HIV1 BZ167 in human PBMC assessed as p24 antigen level by ELISA. It counts as functional, organism-based. Particulars: Human immunodeficiency virus 1, BZ167.
Data set [4] has as its system Human immunodeficiency virus 1. The data set is described as follows: Antiviral activity against HIV1 strain I-2496 in human PBMC assessed as p24 antigen level by ELISA. It counts as functional, organism-based. Particulars: Human immunodeficiency virus 1, I-2496.
Data set [5] relates to Human immunodeficiency virus 1. In words: Antiviral activity against HIV1 UG273 clade A, R5 in human PBMC assessed as p24 antigen level by ELISA. It counts as functional, organism-based. Particulars: Human immunodeficiency virus 1, UG273.
Data set [6] relates to Human immunodeficiency virus 1. The data set is described as follows: Antiviral activity against HIV1 US2 clade B, R5 in human PBMC assessed as p24 antigen level by ELISA. It counts as functional, organism-based. The conditions noted are these: Human immunodeficiency virus 1, US2.
The test system of data set [7] is Human immunodeficiency virus 1. In words: Antiviral activity against HIV1 ETH2220 in human PBMC assessed as p24 antigen level by ELISA. Particulars: Human immunodeficiency virus 1, ETH2220. It counts as functional, organism-based.
For data set [8], the system named is Human immunodeficiency virus 1. In words: Antiviral activity against HIV1 DJ259 in human PBMC assessed as p24 antigen level by ELISA. It counts as functional, organism-based. The conditions noted are these: Human immunodeficiency virus 1, DJ259.
In data set [9] the test system is Human immunodeficiency virus 1. In words: Antiviral activity against HIV1 3B/LA1 infected in human CD4+ T-cell assessed as inhibition of giant cell formation. It is filed as functional, organism-based. The conditions noted are these: Human immunodeficiency virus 1, 3B/LA1, CD4+ T cell.
For data set [10], the system named is Human immunodeficiency virus 2. The data set is described as follows: Antiviral activity against Human immunodeficiency virus 2 ROD infected in human CD4+ T-cell assessed as inhibition of giant cell formation. It counts as functional, organism-based. Particulars: Human immunodeficiency virus 2, ISOLATE ROD.
The test system of data set [11] is Human immunodeficiency virus 1. The data set is described as follows: Antiviral activity against HIV1 3B/LA1 infected in HUT-78 cells co-cultured with uninfected human SupT1 CD4+ T-cell assessed as inhibition of envelope mediated cell-cell fusion after 16-20 hrs by cell-cell fusion assay. It counts as functional, organism-based. Particulars: Human immunodeficiency virus 1, 3B/LA1, HuT78.

The test system of another data set is CCRF-CEM. In words: Cytotoxicity against human CEM cells up to 100 uM by MTS assay. It is filed as cell-based. For orientation: Tetrazolium assays rely on reduction of a dye to a coloured formazan, in cell work by metabolically active cells.
Another data set deals with PBMC. In words: Cytotoxicity against human PBMC up to 100 uM by MTS assay. It counts as cell-based.
Data set [12] in a line: Elimination half life in Wister rat at 4 mg/ kg, iv. It is filed as ADME, organism-based. Set-up: dose 4 mg/ kg, route intravenous. The conditions noted are these: Wistar, in vivo.

A value given as a limit tells only on which side of the number the result lay.

With `Cc1nnc(C(C)C)n1[C@H]1C[C@H]2CC[C@@H](C1)N2CC[C@H](NC(=O)C1CCC(F)(F)CC1)c1ccccc1` [MARAVIROC], the EC50 in data set [1] was > 1000 nM; in data set [2], 3.8 nM; in data set [3], > 1000 nM; in [4], 0.4 nM; in [5], 2.6 nM; in data set [6] it was 0.3 nM. In addition, the EC50 in [7] was 3.6 nM; in [8], 3.7 nM.

As to `c1cc(CN2CCCNCCNCCCNCC2)ccc1CN1CCCNCCNCCCNCC1` [PLERIXAFOR], the EC50 was 3.6 nM in data set [1]; > 1000 nM in data set [2]; 18.5 nM in [3]; > 1000 nM in [4]; > 1000 nM in data set [5]; > 1000 nM in data set [6]. The concentration giving a half-maximal response (EC50) in data set [7] and in [8] was > 1000 nM in each case.

With enfuvirtide, the half-maximal effective concentration (EC50) came out at 3 nM in data set [9]; 360 nM in data set [10]; 275 nM in data set [11]; 3.6 nM in data set [1]; 17.9 nM in data set [2]; 17.9 nM in [3]. The half-maximal effective concentration (EC50) in [4] came to 12.4 nM; in data set [5], 55.9 nM; in data set [6], 6.3 nM; in data set [7], 17.7 nM; in data set [8], 17.9 nM. For the same compound, the Activity entry in the data set with CCRF-CEM and in the data set on PBMC was “Toxic” in each case. For the same compound, the half-life in data set [12] was 2.8 h.
